Measurements: PubChem BioAssay (NCI)
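Five concentrations, 48 hours, 96-well plates. GI50 = concentration required for 50% inhibition of growth. At the TGI there is no net growth.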

Key:
Assay in all cases: NCI anticancer screen, dose series, 48 h
NCI-H226 lung = test system: NCI-H226 lung
ACHN renal = test system: ACHN renal
HOP-62 NSCLC = test system: HOP-62 NSCLC
MDA-MB-231 breast = test system: MDA-MB-231 breast
HOP-92 NSCLC = test system: HOP-92 NSCLC
SF-268 CNS = test system: SF-268 CNS
EKVX NSCLC = test system: EKVX NSCLC
HT29 colon = test system: HT29 colon
NCI-H23 lung = test system: NCI-H23 lung
LOX IMVI melanoma = test system: LOX IMVI melanoma
HL-60(TB) leukemia = test system: HL-60(TB) leukemia
CCRF-CEM leukemia = test system: CCRF-CEM leukemia
NCI-H460 lung = test system: NCI-H460 lung
U251 CNS = test system: U251 CNS
HCT-116 colon = test system: HCT-116 colon
TK-10 renal = test system: TK-10 renal
OVCAR-5 ovarian = test system: OVCAR-5 ovarian
BT-549 breast = test system: BT-549 breast
HCT-15 colon = test system: HCT-15 colon
UO-31 renal = test system: UO-31 renal
A549 NSCLC = test system: A549 NSCLC
RXF 393 renal = test system: RXF 393 renal
DU-145 prostate = test system: DU-145 prostate
SK-MEL-5 melanoma = test system: SK-MEL-5 melanoma
NCI/ADR-RES ovarian = test system: NCI/ADR-RES ovarian
SK-MEL-2 melanoma = test system: SK-MEL-2 melanoma
KM12 colon = test system: KM12 colon
PC-3 prostate = test system: PC-3 prostate
SR leukemia = test system: SR leukemia
OVCAR-8 ovarian = test system: OVCAR-8 ovarian
NCI-H522 lung = test system: NCI-H522 lung
UACC-62 melanoma = test system: UACC-62 melanoma
K-562 leukemia = test system: K-562 leukemia
SN12C renal = test system: SN12C renal
SNB-19 CNS = test system: SNB-19 CNS
SK-OV-3 ovarian = test system: SK-OV-3 ovarian
COLO 205 colon = test system: COLO 205 colon
T-47D breast = test system: T-47D breast
OVCAR-3 ovarian = test system: OVCAR-3 ovarian
CAKI-1 renal = test system: CAKI-1 renal
786-0 renal = test system: 786-0 renal
HCC-2998 colon = test system: HCC-2998 colon
UACC-257 melanoma = test system: UACC-257 melanoma
MOLT-4 leukemia = test system: MOLT-4 leukemia
OVCAR-4 ovarian = test system: OVCAR-4 ovarian
SF-295 CNS = test system: SF-295 CNS
MDA-MB-435 = test system: MDA-MB-435
SW-620 colon = test system: SW-620 colon
SK-MEL-28 melanoma = test system: SK-MEL-28 melanoma
M14 melanoma = test system: M14 melanoma
SNB-75 CNS = test system: SNB-75 CNS
A498 renal = test system: A498 renal
IGROV1 ovarian = test system: IGROV1 ovarian
HS 578T breast = test system: HS 578T breast
SF-539 CNS = test system: SF-539 CNS

CCC(C)CN=C(N)c1ccc(N2CCN(c3ccc(C(N)=NCC(C)CC)cc3)CC2)cc1 (stereo not drawn)
GI50 (NCI-H226 lung): 6.54 µM | TGI (NCI-H226 lung): 31.3 µM | GI50 (ACHN renal): 48 µM | TGI (ACHN renal): > 100 µM | GI50 (HOP-62 NSCLC): 4.51 µM | TGI (HOP-62 NSCLC): 24.2 µM | GI50 (MDA-MB-231 breast): 6.19 µM | TGI (MDA-MB-231 breast): 37.3 µM | GI50 (HOP-92 NSCLC): 0.29 µM | TGI (HOP-92 NSCLC): 8.03 µM | GI50 (SF-268 CNS): 3.93 µM | TGI (SF-268 CNS): 17.4 µM | GI50 (EKVX NSCLC): 0.955 µM | TGI (EKVX NSCLC): 23.3 µM | GI50 (HT29 colon): 11 µM | TGI (HT29 colon): > 100 µM | GI50 (NCI-H23 lung): 5.2 µM | TGI (NCI-H23 lung): 36.3 µM | GI50 (LOX IMVI melanoma): 12.1 µM | TGI (LOX IMVI melanoma): 41.8 µM | GI50 (HL-60(TB) leukemia): 10.9 µM | TGI (HL-60(TB) leukemia): 39.9 µM | GI50 (CCRF-CEM leukemia): 6.09 µM | TGI (CCRF-CEM leukemia): 40.7 µM | GI50 (NCI-H460 lung): 3.34 µM | TGI (NCI-H460 lung): 19.1 µM | GI50 (U251 CNS): 3.69 µM | TGI (U251 CNS): 19.4 µM | GI50 (HCT-116 colon): 8.51 µM | TGI (HCT-116 colon): 60 µM | GI50 (TK-10 renal): 15.1 µM | TGI (TK-10 renal): > 100 µM | GI50 (OVCAR-5 ovarian): 33 µM | TGI (OVCAR-5 ovarian): > 100 µM | GI50 (BT-549 breast): 2.91 µM | TGI (BT-549 breast): 12.5 µM | GI50 (HCT-15 colon): 26.5 µM | TGI (HCT-15 colon): > 100 µM | GI50 (UO-31 renal): 79.5 µM | TGI (UO-31 renal): > 100 µM | GI50 (A549 NSCLC): 10.5 µM | TGI (A549 NSCLC): > 100 µM | GI50 (RXF 393 renal): 15.9 µM | TGI (RXF 393 renal): 96.7 µM | GI50 (DU-145 prostate): 5.72 µM | TGI (DU-145 prostate): > 100 µM | GI50 (SK-MEL-5 melanoma): 1.71 µM | TGI (SK-MEL-5 melanoma): 12.3 µM | GI50 (NCI/ADR-RES ovarian): 85.6 µM | TGI (NCI/ADR-RES ovarian): > 100 µM | GI50 (SK-MEL-2 melanoma): 8.67 µM | TGI (SK-MEL-2 melanoma): 45.3 µM | GI50 (KM12 colon): 7.25 µM | TGI (KM12 colon): 52 µM | GI50 (PC-3 prostate): 7.56 µM | TGI (PC-3 prostate): 69.3 µM | GI50 (SR leukemia): 0.443 µM | TGI (SR leukemia): 3.01 µM | GI50 (OVCAR-8 ovarian): 5.58 µM | TGI (OVCAR-8 ovarian): > 100 µM | GI50 (NCI-H522 lung): 6.49 µM | TGI (NCI-H522 lung): 27.2 µM | GI50 (UACC-62 melanoma): 11.4 µM | TGI (UACC-62 melanoma): 28.1 µM | GI50 (K-562 leukemia): 2.84 µM | TGI (K-562 leukemia): 14 µM | GI50 (SN12C renal): 2.3 µM | TGI (SN12C renal): 8.89 µM | GI50 (SNB-19 CNS): 12.9 µM | TGI (SNB-19 CNS): 69.2 µM | GI50 (SK-OV-3 ovarian): 23.1 µM | TGI (SK-OV-3 ovarian): 79.8 µM | GI50 (COLO 205 colon): 23.4 µM | TGI (COLO 205 colon): > 100 µM | GI50 (T-47D breast): 18.5 µM | TGI (T-47D breast): > 100 µM | GI50 (OVCAR-3 ovarian): 3.45 µM | TGI (OVCAR-3 ovarian): 35.4 µM | GI50 (CAKI-1 renal): 30 µM | TGI (CAKI-1 renal): 92.3 µM | GI50 (786-0 renal): 7.33 µM | TGI (786-0 renal): 87.3 µM | GI50 (HCC-2998 colon): 11.5 µM | TGI (HCC-2998 colon): > 100 µM | GI50 (UACC-257 melanoma): 20.3 µM | TGI (UACC-257 melanoma): > 100 µM | GI50 (MOLT-4 leukemia): 14.2 µM | TGI (MOLT-4 leukemia): 38.4 µM | GI50 (OVCAR-4 ovarian): 19.3 µM | TGI (OVCAR-4 ovarian): > 100 µM | GI50 (SF-295 CNS): 2.9 µM | TGI (SF-295 CNS): 17.4 µM | GI50 (MDA-MB-435): 5.48 µM | TGI (MDA-MB-435): 28.5 µM | GI50 (SW-620 colon): 17 µM | TGI (SW-620 colon): > 100 µM | GI50 (SK-MEL-28 melanoma): 16.9 µM | TGI (SK-MEL-28 melanoma): 41.8 µM | GI50 (M14 melanoma): 8.64 µM | TGI (M14 melanoma): 43.5 µM

CCCCCN1C(=O)/C(=c2\sc3n(c2=O)C2C(NN=3)N(CC)C(=O)N2CC)c2ccccc21 (stereo not drawn)
GI50 (ACHN renal): 1.17 µM | TGI (ACHN renal): 2.58 µM | GI50 (HOP-62 NSCLC): 1.62 µM | TGI (HOP-62 NSCLC): 3.83 µM | GI50 (MDA-MB-231 breast): 1.87 µM | TGI (MDA-MB-231 breast): 4.34 µM | GI50 (HOP-92 NSCLC): 1.22 µM | TGI (HOP-92 NSCLC): 3.72 µM | GI50 (SF-268 CNS): 1.49 µM | TGI (SF-268 CNS): 3.77 µM | GI50 (HT29 colon): 1.65 µM | TGI (HT29 colon): 3.02 µM | GI50 (NCI-H23 lung): 1.83 µM | TGI (NCI-H23 lung): 5.23 µM | GI50 (HL-60(TB) leukemia): 1.91 µM | TGI (HL-60(TB) leukemia): 4.07 µM | GI50 (U251 CNS): 1.31 µM | TGI (U251 CNS): 2.72 µM | GI50 (SNB-75 CNS): 0.26 µM | TGI (SNB-75 CNS): 1.37 µM | GI50 (TK-10 renal): 1.8 µM | TGI (TK-10 renal): 3.44 µM | GI50 (BT-549 breast): 2.41 µM | TGI (BT-549 breast): 10.7 µM | GI50 (A498 renal): 0.274 µM | TGI (A498 renal): 1.67 µM | GI50 (IGROV1 ovarian): 1.65 µM | TGI (IGROV1 ovarian): 4.15 µM | GI50 (RXF 393 renal): 0.798 µM | TGI (RXF 393 renal): 2.83 µM | GI50 (DU-145 prostate): 2.01 µM | TGI (DU-145 prostate): 4.52 µM | GI50 (SK-MEL-2 melanoma): 1.55 µM | TGI (SK-MEL-2 melanoma): 3.3 µM | GI50 (NCI-H522 lung): 0.754 µM | TGI (NCI-H522 lung): 2.29 µM | GI50 (UACC-62 melanoma): 1.06 µM | TGI (UACC-62 melanoma): 3.29 µM | GI50 (HS 578T breast): 1.03 µM | TGI (HS 578T breast): 4.48 µM | GI50 (SNB-19 CNS): 1.88 µM | TGI (SNB-19 CNS): 5.25 µM | GI50 (SK-OV-3 ovarian): 1.44 µM | TGI (SK-OV-3 ovarian): 2.92 µM | GI50 (COLO 205 colon): 1.55 µM | TGI (COLO 205 colon): 3.56 µM | GI50 (SF-539 CNS): 1.3 µM | TGI (SF-539 CNS): 2.61 µM | GI50 (OVCAR-3 ovarian): 1.41 µM | TGI (OVCAR-3 ovarian): 3.01 µM | GI50 (786-0 renal): 1.59 µM | TGI (786-0 renal): 3.27 µM | GI50 (SF-295 CNS): 0.833 µM | TGI (SF-295 CNS): 3.21 µM | GI50 (MDA-MB-435): 0.32 µM | TGI (MDA-MB-435): 1.08 µM | GI50 (M14 melanoma): 1.28 µM | TGI (M14 melanoma): 3.98 µM
